Test results: patent publication US11229623B2 (GlaxoSmithKline Intellectual Property (No.2) Limited, priority 2016, dated 2022)

What follows are molecules tested against T1, human TRPV4 (Homo sapiens, UniProt Q9HBA0) (assay: FLIPR assay for hTRPV4 expressed in BHK cells: inhibition of Agonist Compound-induced calcium signal). Details: hTRPV4 in BHK/AC9 cells, FLIPR calcium signal, agonist at EC80; reported as range class; read-out: IC50.
T1 construct: expressed in transfected cells; host or cells: BHK/AC9 cells transduced with BacMam virus
T1 sequence (Q9HBA0 whole entry): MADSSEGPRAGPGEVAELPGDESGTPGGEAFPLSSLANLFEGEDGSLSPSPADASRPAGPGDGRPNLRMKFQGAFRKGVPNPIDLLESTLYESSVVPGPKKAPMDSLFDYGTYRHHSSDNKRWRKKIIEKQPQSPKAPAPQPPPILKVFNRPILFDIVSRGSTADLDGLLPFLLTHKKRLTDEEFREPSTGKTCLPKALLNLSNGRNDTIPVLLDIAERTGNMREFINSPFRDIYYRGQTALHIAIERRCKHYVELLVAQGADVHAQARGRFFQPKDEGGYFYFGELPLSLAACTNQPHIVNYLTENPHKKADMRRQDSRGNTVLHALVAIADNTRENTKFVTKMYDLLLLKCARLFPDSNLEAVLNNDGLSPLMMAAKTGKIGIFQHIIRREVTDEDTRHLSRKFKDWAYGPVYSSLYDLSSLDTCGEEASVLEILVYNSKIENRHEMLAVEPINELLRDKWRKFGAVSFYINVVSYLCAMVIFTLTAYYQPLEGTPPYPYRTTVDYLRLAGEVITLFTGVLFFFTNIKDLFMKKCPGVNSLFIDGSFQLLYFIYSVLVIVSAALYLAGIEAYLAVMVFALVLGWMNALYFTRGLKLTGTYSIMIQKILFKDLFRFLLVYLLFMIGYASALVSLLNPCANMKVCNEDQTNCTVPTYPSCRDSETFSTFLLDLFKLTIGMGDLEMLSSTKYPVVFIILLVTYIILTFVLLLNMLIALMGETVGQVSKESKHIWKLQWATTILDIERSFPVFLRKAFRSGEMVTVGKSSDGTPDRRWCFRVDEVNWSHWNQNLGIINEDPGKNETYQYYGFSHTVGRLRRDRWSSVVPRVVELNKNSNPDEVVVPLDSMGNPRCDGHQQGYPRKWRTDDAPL
Assay type: cell-based
Method in brief: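 Calcium influx through TRPV4 tracked by Fluo-4 fluorescence on FLIPR. Cells: BHK/AC9 transduced with BacMam-hTRPV4 at MOI 78, 24 h culture post-plating (15,000 cells/well). Dye loading: 2 μM Fluo-4 AM with 500 μM Brilliant Black quencher, 1-1.5 h, room temperature, dark.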

Cc1nc(C(F)(F)F)c(S(=O)(=O)N2C[C@H](Oc3ccc(C#N)c(F)c3)[C@](O)(CO)C2)s1 [Example 87, 2-fluoro-4-(((3S,4R)-4-hydroxy-4-(hydroxymethyl)-1-((2-methyl-4-(trifluoromethyl)thiazol-5-yl)sulfonyl)pyrrolidin-3-yl)oxy)benzonitrile] and N#Cc1ccc(O[C@H]2CN(S(=O)(=O)c3sc(Cl)nc3Cl)C[C@@]2(O)CO)cc1F [Example 88, 4-(((3S,4R)-1-((2,4-dichlorothiazol-5-yl)sulfonyl)-4-hydroxy-4-(hydroxymethyl)pyrrolidin-3-yl)oxy)-2-fluorobenzonitrile] fall in the same range of IC50: 10 to 100 nM for the first, 10 to 100 nM for the second.

Cn1ncc(Cl)c1S(=O)(=O)N1C[C@H](Oc2ccc(C#N)c(F)c2)[C@](O)(CO)C1 [Example 89, 4-(((3S,4R)-1-((4-chloro-1-methyl-1H-pyrazol-5-yl)sulfonyl)-4-hydroxy-4-(hydroxymethyl)pyrrolidin-3-yl)oxy)-2-fluorobenzonitrile] and N#Cc1ccc(O[C@H]2CN(S(=O)(=O)c3ccc(Cl)nc3)C[C@@]2(O)CO)cc1F [Example 91, 4-(((3S,4R)-1-((6-chloropyridin-3-yl)sulfonyl)-4-hydroxy-4-(hydroxymethyl)pyrrolidin-3-yl)oxy)-2-fluorobenzonitrile] fall in the same range of IC50: 10 to 100 nM for the first, 10 to 100 nM for the second.

First: N#Cc1ccc(O[C@H]2CN(S(=O)(=O)c3c(Cl)nc4sccn34)C[C@@]2(O)CO)cc1F [Example 90, 4-(((3S,4R)-1-((6-chloroimidazo[2,1-b]thiazol-5-yl)sulfonyl)-4-hydroxy-4-(hydroxymethyl)pyrrolidin-3-yl)oxy)-2-fluorobenzonitrile]
Second: N#Cc1ccc(O[C@H]2CN(S(=O)(=O)c3ccc(Cl)nc3Cl)C[C@@]2(O)CO)cc1F [Example 92, 4-(((3S,4R)-1-((2,6-dichloropyridin-3-yl)sulfonyl)-4-hydroxy-4-(hydroxymethyl)pyrrolidin-3-yl)oxy)-2-fluorobenzonitrile]
The IC50 of the first is higher: 10 to 100 nM for the first, 0.1 to 10 nM for the second.

C#Cc1ccccc1S(=O)(=O)N1C[C@H](Oc2ccc(C#N)c(F)c2)[C@](O)(CO)C1 [Example 93, 4-(((3S,4R)-1-((2-ethynylphenyl)sulfonyl)-4-hydroxy-4-(hydroxymethyl)pyrrolidin-3-yl)oxy)-2-fluorobenzonitrile] and N#Cc1ccc(O[C@H]2CN(S(=O)(=O)c3cccc(Cl)c3Cl)C[C@@]2(O)CO)cc1F [Example 94, 4-(((3S,4R)-1-((2,3-dichlorophenyl)sulfonyl)-4-hydroxy-4-(hydroxymethyl)pyrrolidin-3-yl)oxy)-2-fluorobenzonitrile] fall in the same range of IC50: 10 to 100 nM for the first, 10 to 100 nM for the second.

N#Cc1ccc(O[C@H]2CN(S(=O)(=O)c3cccc(Cl)c3C#N)C[C@@]2(O)CO)cc1F [Example 95, 4-(((3S,4R)-1-((3-chloro-2-cyanophenyl)sulfonyl)-4-hydroxy-4-(hydroxymethyl)pyrrolidin-3-yl)oxy)-2-fluorobenzonitrile] and N#Cc1ccc(S(=O)(=O)N2C[C@H](Oc3ccc(C#N)c(F)c3)[C@](O)(CO)C2)c(Cl)c1 [Example 97, 4-(((3S,4R)-1-((2-chloro-4-cyanophenyl)sulfonyl)-4-hydroxy-4-(hydroxymethyl)pyrrolidin-3-yl)oxy)-2-fluorobenzonitrile] fall in the same range of IC50: 0.1 to 10 nM for the first, 0.1 to 10 nM for the second.

N#Cc1ccc(O[C@H]2CN(S(=O)(=O)c3c(Cl)cc(C(F)(F)F)cc3Cl)C[C@@]2(O)CO)cc1F [Example 96, 4-(((3S,4R)-1-((2,6-dichloro-4-(trifluoromethyl)phenyl)sulfonyl)-4-hydroxy-4-(hydroxymethyl)pyrrolidin-3-yl)oxy)-2-fluorobenzonitrile] and N#Cc1ccc(O[C@H]2CN(S(=O)(=O)c3ccc(C(F)F)cc3)C[C@@]2(O)CO)cc1F [Example 98, 4-(((3S,4R)-1-((4-(difluoromethyl)phenyl)sulfonyl)-4-hydroxy-4-(hydroxymethyl)pyrrolidin-3-yl)oxy)-2-fluorobenzonitrile] fall in the same range of IC50: 10 to 100 nM for the first, 10 to 100 nM for the second.
